# Measured values as given in patent publication US20250170101A1, “MONOACYLGLYCEROL LIPASE INHIBITORS AND USE THEREOF FOR THE TREATMENT AND MANAGEMENT OF PAIN AND RELATED CONDITIONS” (Psy Therapeutics, Inc., priority 2021, published 2025).
# Biological target: T1, human MAGL (Homo sapiens, UniProt Q99685)
# T1 construct: recombinant MAGL enzyme (aa 2-303 RBC, internal preparation)
# T1 sequence (Q99685 2-303): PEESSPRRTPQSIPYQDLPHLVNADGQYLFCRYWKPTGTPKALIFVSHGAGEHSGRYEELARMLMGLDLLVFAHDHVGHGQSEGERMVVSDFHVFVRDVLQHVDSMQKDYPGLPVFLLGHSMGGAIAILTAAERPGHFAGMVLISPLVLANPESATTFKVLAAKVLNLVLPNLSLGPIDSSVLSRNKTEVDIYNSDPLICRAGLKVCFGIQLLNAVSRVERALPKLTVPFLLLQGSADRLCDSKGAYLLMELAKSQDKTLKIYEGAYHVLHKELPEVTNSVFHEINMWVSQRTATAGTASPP
# Experiment: MAGL inhibition potency (IC50) with 4NPA substrate, Example 20, methods of Table C
# Assay type: biochemical
# Settings: not given
# From the text: Cayman's Monoacylglycerol Lipase Inhibitor Screening Assay provides a method for screening human MAGL inhibitors. MAGL hydrolyzes 4-nitrophenylacetate resulting in a yellow product, 4-nitrophenol, with an absorbance of 405-412 nm. The monoacylglycerol lipase inhibitor screening assay kit from Cayman Chemical was used to measure the MAGL potency for the compounds in Table 4 and Table 5. Cayman's Monoacylglycerol Lipase Inhibitor Screening Assay provides a method for screening human MAGL inhibitors. MAGL hydrolyzes 4-nitrophenylacetate resulting in a yellow product, 4-nitrophenol, with an absorbance of 405-412 nm. MAGL Inhibition was measured by the following assay. Monoacylglycerol Lipase (MAGL) inhibition was measured using recombinant MAGL enzyme (aa 2-303 RBC, internal preparation) and the substrate 4-Nitrophenyl acetate (4NPA) (Sigma-Aldrich, N8130). Hydrolysis of the substrate in the presence of the enzyme was measured by absorbance at 405 nm. 10 μL of assay buffer (10 mM Tris pH 7.5, 1 mM EDTA, 0.9% DMSO) was added to a black 384-well non-binding plate with clear bottom (Greiner, 781906) for each reaction. […] DMSO control wells were included for reference. A 10.8 nM (1.8×) MAGL mix in assay buffer was prepared, with 25 μL added to each reaction well, for a final assay concentration of 6 nM. No enzyme wells received 25 μL of buffer. Plate was incubated at room temperature for 30 minutes. 35 mM solution of 4NPA in methanol was prepared daily. A 4.5×4NPA substrate solution was prepared in assay buffer and 10 μL was added to each reaction well, for a final assay concentration of 0.25 mM. Plate was spun for 1 minute at 1000 rpm before measuring absorbance using a CLARIOstar plate reader (BMG Labtech). A kinetic reading at 405 nm was done every minute for 30 minutes. Data was analyzed using the linear slope of the reaction progress curve and the average of the no-enzyme wells (background) was subtracted from the data. The background-subtracted slope data was converted to % activity using the average of wells with enzyme and DMSO vehicle. IC50s were calculated using GraphPad software (Sigmoidal dose response, variable slope equation). […] Table 6 is a table of potency measurements of MAGL inhibition measured for other compounds using the Potency Assay of Example 20 above, with the following modifications described in Table C. [table]
row,IC50 [µM],Structure (SMILES)
1,> 10,"Cc1cc(C2CC3(C2)CN(Cc2cc(O)ccc2F)C3)n(-c2ccccc2C)n1 [Compound 150, 4-fluoro-3-((6-(3-methyl-1-(o-tolyl)-1H-pyrazol-5-yl)-2-azaspiro [3.3]heptan-2-yl)methyl)phenol]"

# Same assay, conditions: Method 2: MAGL (10 nM) Cayman Chemical Enzyme
row,IC50 [µM],Structure (SMILES)
1,> 10,COC(c1cccn1C)N1CC2(CC(c3cc(C)nn3-c3ccccc3C)C2)C1 (centres unmarked) [Compound 181]
2,> 10,COc1cc(F)ccc1CN1CC2(CC(c3cc(C)nn3-c3ccccc3C)C2)C1 [Compound 149]
3,> 10,COC(c1ccn(C)c1)N1CC2(CC(c3cc(C)nn3-c3ccccc3C)C2)C1 (centres unmarked) [Compound 182]

# Same assay, conditions: Method 4: MAGL (15 nM) Cayman Chemical Enzyme
row,IC50 [µM],Structure (SMILES)
1,> 10,CCOc1cc(F)ccc1C(=O)N1CC2(CC(C(=O)N(C)c3cccnc3C)C2)C1 [Compound 198]

# Same assay, conditions: Method 6: Enzyme Conc 6, Reaction Biology (6 nM)
row,IC50 [µM],Structure (SMILES)
1,> 10,Cc1ccccc1-c1ccnn1C1CC2(C1)CN(C(=O)c1cc(O)ccc1F)C2 [Compound 405]
2,> 10,Cc1ccccc1-c1ccn(C2CC3(C2)CN(C(=O)c2cc(O)ccc2F)C3)n1 [Compound 441]
3,> 10,Cc1cn(C2CC3(C2)CN(C(=O)c2cc(O)ccc2F)C3)nc1-c1ccccc1Cl [Compound 416]
4,> 10,Cc1cc(-c2ccccc2C)n(C2CC3(C2)CN(C(=O)c2cc(O)ccc2F)C3)n1 [Compound 406]
5,> 10,Cc1ccccc1-c1cc(C)n(C2CC3(C2)CN(C(=O)c2cc(O)ccc2F)C3)n1 [Compound 442]
6,> 10,Cc1cnn(C2CC3(C2)CN(C(=O)c2cc(O)ccc2F)C3)c1-c1ccccc1Cl [Compound 404]

# Same assay, conditions: Method 12: Enzyme Conc 15, Reaction Biology (15 nM)
row,IC50 [µM],Structure (SMILES)
1,> 10,Cc1cnn(C2CC3(C2)CN(C(=O)c2cc(O)ccc2C(F)(F)F)C3)c1-c1ccccc1F [Compound 494]
2,> 10,Cc1cn(C2CC3(C2)CN(C(=O)c2cc(O)ccc2C(F)(F)F)C3)nc1-c1ccccc1F [Compound 495]
3,> 10,O=C(c1c(F)cccc1OC1CC1)N1CC2(CC(n3ncc(C(F)(F)F)c3-c3ccccc3F)C2)C1 [Compound 521]

# Same assay, conditions: Method 14: Enzyme Conc "0", Source "0"; Reaction Biology prep, 6 nM
row,IC50 [µM],Structure (SMILES)
1,> 10,O=C(c1cc(O)ccc1F)N1CC2(CC(C(=O)N3CCOCC3)C2)C1 [Compound 384]
2,> 10,Cc1cc(C2CC3(C2)CN(C(=O)c2cccc4c2CCO4)C3)n(-c2ccccc2C)n1 [Compound 403]
3,> 10,Cc1cc(C2CC3(C2)CN(C(=O)c2cc4c(cc2F)CCO4)C3)n(-c2ccccc2C)n1 [Compound 368]
4,> 10,O=C(c1cc(O)ccc1F)N1CC2(CC(C(=O)N3CCC4(COC4)C3)C2)C1 [Compound 391]
5,> 10,O=C(c1cc(O)ccc1F)N1CC2(CC(C(=O)N3CCCC3)C2)C1 [Compound 388]
6,> 10,Cc1cc(C2CC3(C2)CN(C(=O)c2ccc4c(c2)OCC4)C3)n(-c2ccccc2C)n1 [Compound 402]
7,> 10,O=C(NCC1COC1)C1CC2(C1)CN(C(=O)c1cc(O)ccc1F)C2 [Compound 395]

# Biological target: T2, human recombinant FAAH (Homo sapiens, UniProt O00519)
# T2 construct: purchased Cayman kit Item No. 10005196; FAAH enzyme 700302
# T2 sequence (O00519 1-579): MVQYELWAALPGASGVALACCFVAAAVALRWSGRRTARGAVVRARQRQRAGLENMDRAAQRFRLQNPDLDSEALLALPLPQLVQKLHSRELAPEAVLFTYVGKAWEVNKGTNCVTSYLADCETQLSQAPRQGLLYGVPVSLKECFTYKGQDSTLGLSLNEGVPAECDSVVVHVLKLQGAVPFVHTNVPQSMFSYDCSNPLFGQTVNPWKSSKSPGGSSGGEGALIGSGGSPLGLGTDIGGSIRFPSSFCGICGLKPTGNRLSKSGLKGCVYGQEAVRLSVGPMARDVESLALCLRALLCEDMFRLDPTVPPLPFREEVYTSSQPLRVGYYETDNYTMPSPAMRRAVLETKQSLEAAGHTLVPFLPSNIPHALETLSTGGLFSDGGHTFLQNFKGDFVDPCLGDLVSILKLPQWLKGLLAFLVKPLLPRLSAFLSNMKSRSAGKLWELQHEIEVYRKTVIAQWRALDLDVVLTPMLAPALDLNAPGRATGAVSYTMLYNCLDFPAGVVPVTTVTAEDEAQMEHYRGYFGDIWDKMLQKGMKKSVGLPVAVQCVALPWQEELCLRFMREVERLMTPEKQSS
# Experiment: FAAH counter screen (Cayman FAAH Inhibitor Screening Assay Kit), Example 21
# Assay type: biochemical
# Settings: Method A: starting concentration of 100 μM
# Description: Comparative compound potency at FAAH can be obtained with the following assay.
# MAGL inhibitor compounds were also counter-screened for FAAH inhibition potency using the following assay. Assessment of FAAH inhibition was performed using Fatty Acid Amide Hydrolase Inhibitor Screening Assay Kit (Cayman Item No. 10005196) following manufacture's instruction with some modifications. The kit utilizes human recombinant FAAH and the fluorescent substrate, AMC Arachidonoyl amide (AAMCA). 5 μL of assay buffer (125 mM Tris, pH 9.0, 1 mM EDTA, i.e. ethylenediaminetetraacetic acid) was added to a 384-well black plate (Corning, 3573). Test compounds and control inhibitor JZL-195 (Cayman Chemical, 13668) were tested in 10-concentration IC50 mode with 3-fold serial dilution at a starting concentration of 100 μM and 10 μM, respectively. 300 nL or 30 nL of test compounds were delivered into a 384-well black plate (Corning, 3573) using a Labcyte Echo, followed by addition of 15 μL of FAAH enzyme (Cayman, 700302) in assay buffer. After a 5-minute pre-incubation at room temperature, 10 μL of AAMCA was added in assay buffer to start the reaction. Final concentration of FAAH enzyme is not specified and AAMCA substrate was used at the 20 uM. After these dilutions, the final concentration of the test compounds ranged from 100 μM to 5.08 nM or 10 μM down to 0.508 nM. The reaction was allowed to progress for 60 minutes, while the plate was read on an Envision plate reader at an Ex/Em of 350/460 nm with readings every minute. The data was analyzed in Microsoft Excel, using the slope between 30 and 59 minutes. The average of the no-enzyme wells (background) was subtracted from the data. The background-subtracted slope data was converted to % activity using the average of wells with enzyme and DMSO vehicle. IC50 values were calculated using GraphPad software (Sigmoidal dose response, variable slope equation).
# Compounds listed in Table D2 were tested in the FAAH Counterscreen of Example 21
row,IC50 [µM],Structure (SMILES)
1,0.014,O=C(Nc1cccnc1)N1CCC(Cc2cccc(Oc3ccc(C(F)(F)F)cn3)c2)CC1 [reference compound]
2,> 10,Cc1ccccc1-n1nc(C2CC3(C2)CN(C(=O)c2cc(O)ccc2F)C3)cc1C [Compound 117]
3,> 10,"Cc1cc(C2CC3(C2)CN(C(=O)c2c(F)ccc(O)c2F)C3)n(-c2ccccc2C)n1 [Compound 127, (2,6-difluoro-3-hydroxyphenyl)(6-(3-methyl-1-(o-tolyl)-1H-pyrazol-5-yl)-2-azaspiro[3.3]heptan-2-yl)methanone]"
4,> 10,"Cc1cc(C2CC3(C2)CN(C(=O)c2cccc(O)c2)C3)n(-c2ccccc2C)n1 [Compound 125, (3-hydroxyphenyl)(6-(3-methyl-1-(o-tolyl)-1H-pyrazol-5-y1)-2-azaspiro[3.3]heptan-2-yl)methanone]"
5,> 10,"COc1ccc(F)c(C(=O)N2CC3(CC(c4cc(C)nn4-c4ccccc4C)C3)C2)c1 [Compound 123, (2-fluoro-5-methoxyphenyl)(6-(3-methyl-1-(o-tolyl)-1H-pyrazol-5-y1)-2-azaspiro[3.3]heptan-2-yl)methanone]"

row,Structure (SMILES),IC50 [µM]
1,O=C(Oc1ccc([N+](=O)[O-])cc1)N1CCN(Cc2cccc(Oc3ccccc3)c2)CC1 [reference compound],0.459

# Biological target: T3, MAGL enzyme (Homo sapiens, UniProt Q99685)
# T3 sequence (Q99685 1-303): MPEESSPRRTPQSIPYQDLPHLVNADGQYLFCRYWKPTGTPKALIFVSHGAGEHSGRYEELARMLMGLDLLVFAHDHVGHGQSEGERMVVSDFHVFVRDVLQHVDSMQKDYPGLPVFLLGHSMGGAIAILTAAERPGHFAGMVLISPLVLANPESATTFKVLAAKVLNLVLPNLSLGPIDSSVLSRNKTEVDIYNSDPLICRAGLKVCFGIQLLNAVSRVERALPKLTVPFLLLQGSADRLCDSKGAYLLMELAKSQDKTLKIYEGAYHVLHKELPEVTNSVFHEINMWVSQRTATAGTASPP
# Experiment: MAGL reversible inhibition assay (washout), Example 22
# Assay type: biochemical
# Design: % MAGL activity returning after washout: concentration or dose not given beside the values
# Settings: pre-washout compound concentration 1 μM
# Description: The reversible mechanism of MAGL inhibition of a test compound of Formula (I) can be determined. Flag-tagged MAGL enzyme will be immobilized on anti-Flag beads. Immobilized enzyme will be incubated+/−inhibitor at a dose that produces complete inhibition. Colorimetric substrate (4-NPA) will be added and the reaction monitored on a plate reader for 30 minutes to verify complete inhibition. Immobilized enzyme will then be washed thoroughly to remove the inhibitor, and fresh substrate will be added. The reaction will be monitored for an additional 30 minutes; returning enzymatic activity will indicate reversibility of inhibition. […]
# For some test compounds, % activity returning after washout may be less than 100%/if complete compound unbinding takes longer than 30 minutes.
row,degree to which MAGL enzymatic activity returned following washout of test compounds,Structure (SMILES)
1,155,"Cc1cnn(C2CC3(C2)CN(C(=O)c2cc(O)ccc2F)C3)c1-c1cc(F)ccc1Cl (single isomer, unassigned) [Compound 519, {6-[5-(2-chloro-5-fluorophenyl)-4-methyl-1-pyrazolyl]-2-aza-2-spiro[3.3]heptyl}(2-fluoro-5-hydroxyphenyl)methanone]"

# Same assay, conditions: relative to control (no inhibitor before washout), immediately following 30 minute washout
row,% MAGL activity returning after washout [%],Structure (SMILES)
1,>50,"Cc1cnn(C2CC3(C2)CN(C(=O)c2cc(O)ccc2F)C3)c1-c1cc(F)ccc1Cl (single isomer, unassigned) [Compound 519, {6-[5-(2-chloro-5-fluorophenyl)-4-methyl-1-pyrazolyl]-2-aza-2-spiro[3.3]heptyl}(2-fluoro-5-hydroxyphenyl)methanone]"
